In US11479534B2, “Compound and use thereof in medicine” (Changsha Hooz Bioscience And Technology Co., Ltd, priority 2018, dated 2022):

Tests used:
UHRF1 = biological target: T1, UHRF1 (Homo sapiens, UniProt Q96T88); assay: Western blot of UHRF1 protein level in treated DU145 cells; format: cell-based
T1 construct: reduces the protein level of the oncogene UHRF1 in prostate cancer cells in a dose-dependent manner; endogenous in cells; host or cells: DU145
T1 sequence (Q96T88 1-793): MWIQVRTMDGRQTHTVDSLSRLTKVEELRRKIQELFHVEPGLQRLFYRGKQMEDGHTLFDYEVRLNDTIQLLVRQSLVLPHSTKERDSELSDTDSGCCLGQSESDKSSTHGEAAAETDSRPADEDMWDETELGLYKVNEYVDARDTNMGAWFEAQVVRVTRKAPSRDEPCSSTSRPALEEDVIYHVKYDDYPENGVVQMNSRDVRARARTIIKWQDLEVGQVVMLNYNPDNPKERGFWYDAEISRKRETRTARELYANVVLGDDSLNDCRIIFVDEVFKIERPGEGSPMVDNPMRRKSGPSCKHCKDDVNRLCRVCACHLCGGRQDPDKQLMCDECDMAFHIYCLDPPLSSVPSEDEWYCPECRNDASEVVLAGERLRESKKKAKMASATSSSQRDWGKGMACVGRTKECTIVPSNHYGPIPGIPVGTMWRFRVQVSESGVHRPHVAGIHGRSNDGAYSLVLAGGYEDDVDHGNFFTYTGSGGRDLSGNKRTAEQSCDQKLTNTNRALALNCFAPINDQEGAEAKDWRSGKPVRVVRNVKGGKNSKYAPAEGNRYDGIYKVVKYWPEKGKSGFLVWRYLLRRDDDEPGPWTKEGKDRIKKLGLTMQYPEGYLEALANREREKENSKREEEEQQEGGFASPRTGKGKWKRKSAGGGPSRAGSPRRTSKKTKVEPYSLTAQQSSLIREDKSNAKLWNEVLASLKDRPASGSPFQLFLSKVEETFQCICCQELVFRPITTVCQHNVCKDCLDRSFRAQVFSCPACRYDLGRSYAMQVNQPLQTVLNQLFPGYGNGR
Procedure: (§1) Culturing a same amount of prostate cancer cell line DU145 in each well of a 6-well culture dish, allowing cell adhesion for 24 hours, and then using different doses of said compound M3 (50, 100 and 150 μM) to treat the prostate cancer cell DU145, and using said compound M1 as a control drug. After 24 hours, harvest the cells for Western blot to detect the protein levels of UHRF1, histone H3 and acetylated histone H3. […] The results of this experiment verifies that the compound M3 of the present invention specifically dual-targeting UHRF1 and HDAC molecules.

HDAC1 [1] = biological target: T2, HDAC1 (Homo sapiens, UniProt Q13547); assay: Western blot of acetylated histone H3 and total histone H3 in treated DU145 cells (HDAC targeting); format: cell-based; conditions: FIG. 6, M2 and M3 under the same dose
T2 construct: endogenous in cells; host or cells: DU145
Procedure: as §1

HDAC1 [2] = assay: as above; format: cell-based; conditions: DU145 cells, 50, 100 and 150 μM, 24 hours, Western blot (FIG. 1)
Procedure: as §1

DNMT1 = assay: Western blot of DNMT1 protein expression in treated DU145 cells; format: cell-based; conditions: 24 hours, Western blot (FIG. 1)
[3] = tested on: prostate cancer cells PC3; assay: MTS cell survival assay, PC3; format: cell-based
Procedure: (§2) Culturing prostate cancer cells PC3 and DU145 cells, as well as non-cancerous normal cells (5000 cells/well) in a 96-well cell culture dish, and then using different doses of said compound M3 to treat prostate cancer cells PC3 and DU145 cells and normal […] cells RWPE1 and HPrEC. After 72 hours, detecting the survival rate of the cells by MTS method, and calculate […] of said compound M3 for different cells using software.

[4] = tested on: prostate cancer cells DU145; assay: MTS cell survival assay, DU145; format: cell-based; conditions: Homo sapiens, DU-145, DU145, 72 hours, read-out: half inhibitory dose (IC50)
Procedure: as §2

RWPE1 cells = assay: MTS cell survival assay, RWPE1; format: cell-based; conditions: Homo sapiens, RWPE-1, RWPE1 normal cells, 72 hours
Procedure: as §2

HPrEC cells = assay: MTS cell survival assay, HPrEC; format: cell-based; conditions: HPrEC normal cells, 72 hours
Procedure: as §2

[5] = tested on: prostate cancer DU145 cells xenograft tumor; assay: Subcutaneous xenograft model of prostate cancer DU145 cells in nude mouse; format: in vivo; conditions: 100 mg/kg/day intragastrically, 5 days a week, 4 weeks; compared with control compound M1
Procedure: Establishing a subcutaneous xenograft model of prostate cancer DU145 cells (1×106) in immunodeficient mouse by subcutaneous injection, allowing around 2-3 weeks for the xenograft to grow into a size of around 250 mm3, and then intragastrically administering the compound M3 of the present invention (100 mg/kg/day) once a day, 5 days a week with 2 days rest in between, for a total of 4 weeks of continuous treatment. Said […] and solvent DMSO are used as controls. Tumor size is measured before treatment and every 3 days after treatment begins. The size of the tumor is calculated according to the formula V=length×width 2/2.

[6] = Safety in nude mouse: weight and serum biochemical indicators; format: in vivo; conditions: 200 mg/kg/day intragastrically, 4 weeks
Procedure: Intragastrically administering the compound M3 of the present invention (200 mg/kg/day) in an immunodeficient nude mouse once a day, 5 days a week with 2 days rest in between, for a total of 4 weeks of continuous treatment; using solvent DMSO as a control. Weight of the nude mouse is measured before treatment and every 3 days after the treatment begins. When the experiment ends, extract blood from the nude mouse, separate blood serum, and detect the changes in biochemical indicators, including: aspartate aminotransferase (AST) and alanine aminotransferase (ALT) indicative of liver function, blood urea nitrogen (BUN) and creatinine (CREA) indicative of kidney function, and creatine kinase (CK) and l lactate dehydrogenase (LDH-L) indicative of heart function, to evaluate the effect of […] on heart, liver and kidney functions.

T2 sequence (Q13547 whole entry): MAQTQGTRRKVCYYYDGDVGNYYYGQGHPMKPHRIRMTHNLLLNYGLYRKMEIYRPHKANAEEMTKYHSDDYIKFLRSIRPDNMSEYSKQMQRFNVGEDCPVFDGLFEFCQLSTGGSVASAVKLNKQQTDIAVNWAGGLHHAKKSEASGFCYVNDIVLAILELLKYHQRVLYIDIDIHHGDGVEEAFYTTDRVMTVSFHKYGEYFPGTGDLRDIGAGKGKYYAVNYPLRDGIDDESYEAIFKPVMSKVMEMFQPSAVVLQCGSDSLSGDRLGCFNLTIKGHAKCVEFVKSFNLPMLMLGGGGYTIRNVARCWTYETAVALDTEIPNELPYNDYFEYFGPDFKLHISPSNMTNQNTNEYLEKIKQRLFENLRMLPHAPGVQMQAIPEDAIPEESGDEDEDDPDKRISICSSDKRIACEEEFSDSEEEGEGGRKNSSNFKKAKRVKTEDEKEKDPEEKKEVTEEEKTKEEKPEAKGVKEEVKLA

SMILES: O=C(CCCCCCC(=O)Nc1c[nH]c(=O)[nH]c1=O)NO [M3, N1-(carbonyl-5-aminouracil)-N8-octylhydroxyamide]
- protein level of UHRF1 (UHRF1; DU145 cells, 50, 100 and 150 μM, 24 hours, Western blot (FIG. 1)): specifically reduces the protein level of the oncogene UHRF1 in prostate cancer cells in a dose-dependent manner
- protein level of UHRF1 target (UHRF1; FIG. 6, M2 and M3 under the same dose): significantly reduces the protein stability of UHRF1
- activity of HDAC1 (acetylated histone H3) (HDAC1 [1]): significantly inhibits the activity of HDAC1
- acetylation level of histone H3 (HDAC1 [2]): causes an increase in acetylation level of histone H3
- total histone H3 level (HDAC1 [2]): not affected
- protein expression of DNMT1 (DNMT1): significantly reduced
- IC50 ([3]; PC3, 72 hours, MTS, read-out: half inhibitory dose (IC50)): < 50 µM
- selectivity for killing prostate cancer cells ([3]; PC3 and DU145 compared with RWPE1 and HPrEC): good selectivity for killing prostate cancer cells
- IC50 [4]: < 50 µM
- IC50 (RWPE1 cells): > 300 µM
- IC50 (HPrEC cells): > 300 µM
- tumor growth [5]: significantly reduces tumor growth compared with the control compound M1
- weight of the nude mouse [6]: does not significantly reduce the weight
- heart function (CK, LDH-L) ([6]; blood serum): no significant effect
- kidney function (BUN, CREA) ([6]; blood serum): no significant effect
- liver function (AST, ALT) ([6]; blood serum): no significant effect
